Eleven compounds from US5348956A, “Substituted cyclopropylamino-1,3,5-triazines” (UCB S.A., priority 1991, dated 1994) can be followed below.

The subject of series [1] is bronchospasm induced by serotonin. In words: bronchospasmolytic activity (Konzett and Roessler), bronchospasm induced by serotonin. Format: in vivo, Dunkin-Hartley guinea-pig. The note with it: Cavia porcellus; intravenous; serotonin-induced bronchospasm; read-out: Doses (ID50), Serotonin. The protocol:
(§1) This activity was measured in the Dunkin-Hartley guinea-pig by the method of H. KONZETT and […] (Naunyn Schmiedebergs Arch. exp. Path. […] The anesthetized (urethane) and curarized (gallamine) guinea-pig is placed under assisted respiration. The endotracheal pressure is recorded. […] The compound to be tested is also administered intravenously two minutes before the administration of the spasmogen and then in 3 to 4 cumulative doses in increasing amounts at intervals of 15 minutes. Six animals per compound to be tested and per spasmogen are used.

For series [2], the system named is plantar edema induced by immune complexes. Put plainly: "reverse passive Arthus" (RPA) test, anti-inflammatory and anti-edema activity. Format: in vivo, Sprague-Dawley rat. Conditions: Rattus norvegicus, intravenous. The method, then:
The reaction between a soluble antigen and antibodies in the organism may lead to an acute inflammatory reaction accompanied by release of histamine, modification of vascular permeability and formation of a localized edema. […] To this end, the Arthus reaction is induced by subplantar administration of 0.1 ml of heterologous antivalbumin reaginic serum into the right hind paw and by simultaneous intravenous injection of 1 ml/kg ovalbumin (25 mg/ml). The compound to be tested is administered intravenously 30 seconds before induction of the Arthus reaction, in a least 3 different doses. A group of 6 rats is used per dose of compound to be tested. The volume of the paw is measured by plethysmometry before the Arthus reaction and 3 to 5 hours after induction of the Arthus reaction, both in the control animals and in the treated animals. The effect of a compound on the reduction in the edema for each dose and at each measurement time (3 hours and 5 hours) is expressed in % of the edema observed in the control animals. The doses of the compounds (ID30 in μmole/kg) which inhibit by 30%, on average over all the animals, the volume of the edema observed in the control animals are given in Table VII below.

Series [3] deals with serotonergic activity. Put plainly: "wet dog shake" (WDS) behavior, serotonergic activity. The class given is in vivo, male Sprague-Dawley rats. The protocol:
A decrease in serotonergic activity has been correlated with the occurrence of affective disorders, such as depression and anxiety. […] The test is carried out in the morning on male Sprague-Dawley rats (±180 g), divided the previous day into groups of 8 animals in residence cages. The cage used for the tests is a transparent enclosure of 12×24×30 cm in height, the floor of which is covered with a layer of sand. The compounds to be tested, dissolved either in physiological salt solution or in a citrate buffer of pH 5, are administered intraperitoneally in a different dose for each group treated. The control groups receive an intraperitoneal injection of the same vehicle (either physiological salt solution or citrate buffer). […] The mean values of the results are calculated and analyzed statistically by the Mann-Whitney method. The mean values of the number of shakes obtained for the compounds according to the invention administered intraperitoneally at the doses indicated (in mg/kg) are given in Table V below.

In series [4] the test system is bronchospasm induced by acetylcholine. In words: bronchospasmolytic activity (Konzett and Roessler), bronchospasm induced by acetylcholine. Format: in vivo, Dunkin-Hartley guinea-pig. The note with it: Cavia porcellus; intravenous; acetylcholine-induced bronchospasm; read-out: Doses (ID50), Acetylcholine. The method, then:
as §1

Series [5] has as its system anaphylactic release of histamine, guinea-pig lung sections. In words: inhibition of the anaphylactic release of histamine (proper effect). Format: cell-based, Dunkin-Hartley guinea-pigs. Conditions: Cavia porcellus, in vitro, read-out: Minimum inhibitory dose (MID). The method, then:
(§2) Dunkin-Hartley guinea-pigs which are first passively sensitized by an intravenous injection of 1 ml of isologous antiovalbumin serum are used. Twenty-four hours after the injection, the lungs are then perfused with a Tyrode buffer to evacuate the blood, and then removed and cut into sections of 1 mm. These sections are divided up into test tubes (3 sections per tube) to give 10 experimental groups of lung sections per guinea-pig. A "positive" control group of lung sections is stimulated by addition of an ovalbumin solution (0.1 mg/ml) to induce the anaphylactic release of histamine and serves to determine the maximum amount of histamine (100%) which can be released. A "negative" control group which is not stimulated by ovalbumin serves to determine the naturally released amount of histamine (spontaneous release). In three other groups, the lung sections are incubated at 37° C. for 30 minutes in the ovalbumin solution in the presence of three different doses of the compound to be tested (one dose per group). […] At this dose, isoprenaline inhibits the release of histamine by 30 to 40%, which is verified on a control group treated only with isoprenaline alone at this dose. In addition, a supplementary control group which is not stimulated by ovalbumin is used to detect a possible spontaneous release of histamine by the highest dose of the compound tested. In each group, the histamine released in the incubation medium is measured by spectrofluorometry (D. P. EVANS et al., Life Sci., 12, (1973), 327-336).

In series [6] the test system is longitudinal muscles of the ileum contracted by histamine. In words: potentiation of the myorelaxing effect of isoprenaline on the ileum. The class given is cell-based, Dunkin-Hartley guinea-pigs. The note with it: with isoprenaline 10^-7 mole/l; histamine 3.2 μmoles/l. The protocol:
(cf. R. A. TURNER, "Screening Methods in Pharmacology", Ed. Acad. Press, San Diego, 1965, chapter IV, pages 43-47). […] Inhibition cycle: When the successive contractions induced by the histamine injections have become reproducible, the compound to be tested is injected immediately after the second wash. The contraction induced by the following injection of histamine is measured and compared with the average of the three preceding contractions caused by the repeated injections of histamine (control contractions). From the result obtained, the percentage inhibition of the contraction is calculated. Several cycles of histamine injection are then performed again, until the contractions of the muscle become reproducible again; the muscle is then ready for testing of another compound. The potentiating effect of a compound is measured in the course of a so-called "potentiation" cycle, which comprises three successive inhibition cycles. […] In the course of the second inhibition cycle, the percentage inhibition of the contraction obtained with the compound to be tested, injected alone at a given dose, is determined. In the third inhibition cycle, isoprenaline and the compound to be tested are injected simultaneously, and the percentage inhibition of the contraction is calculated for the dose used of the compound tested. The same experiments are repeated for each of the doses of the compounds tested.

Series [7] in a line: toxicity, Irwin's test. Format: in vivo. Conditions: i.p.; death of two animals out of three within 48 hours. The method, then: Progressive doses of the compound to be tested are administered intraperitoneally to groups of three mice until the lethal dose is reached (dose which causes the death of two animals out of three within 48 hours).
Series [8] has as its system anaphylactic release of histamine, guinea-pig lung sections. Put plainly: potentiation of the inhibition of anaphylactic histamine release by isoprenaline. Format: cell-based, Dunkin-Hartley guinea-pigs. Conditions: with isoprenaline 10^-7 mole per liter. The protocol: as §2
For series [9], the system named is bronchospasm induced by histamine. In words: bronchospasmolytic activity (Konzett and Roessler), bronchospasm induced by histamine. The note with it: Cavia porcellus; intravenous; histamine-induced bronchospasm; read-out: Doses (ID50), Histamine. Format: in vivo, Dunkin-Hartley guinea-pig. The protocol: as §1
Setting [10] is: 3 hours after induction of the Arthus reaction, read-out: Dose (ID30), 3 hours.
The mark [11] stands for this setting: 5 hours after induction of the Arthus reaction, read-out: Dose (ID30), 5 hours.

SMILES strings stand for the structures. Structures can show the parent of a compound that is named as a salt. Where two headings read alike, the source gives them in different places.

Turning to `O=C1CN(c2nc(NC3CC3)nc(C3CC3)n2)C1` [Compound 17], the ED50 in series [1] is 0.2 µmol/kg; in series [4], 0.2 µmol/kg; in [9], 0.1 µmol/kg. Further, the ED30 in series [2] (setting [10]) and in series [2] (setting [11]) was 1 µmol/kg throughout. Moreover, in series [3] (2.8 mg/kg i.p., counted over 30 minutes), the “Average number of shakes” value is given as 10.5 ± 2.9 shakes. Moreover, the minimal effective concentration in [5] amounted to 3.2 µM. Also, the “Minimum potentiating dose (MPD)” value is 0.32 µmol/L in [6] and 1.0 µmol/L in [8]. Besides, the Lethal dose in [7] amounted to 281.5 mg/kg.
Consider `C1CN(c2nc(NC3CC3)nc(C3CC3)n2)CS1` [Compound 21, 2-Cyclopropyl-4-cyclopropylamino-6-(3-thiazolidinyl)-1,3,5-triazine], for which the “Average number of shakes” value in series [3] (2.63 mg/kg i.p., counted over 30 minutes) came to 5.5 ± 2.0 shakes. Further, in [5], the minimal effective concentration was 0.1 µM. For the same compound, the Lethal dose in series [7] stood at 263 mg/kg. The “Minimum potentiating dose (MPD)” value in [8] was 0.32 µmol/L.
Turning to `C1CN(c2nc(NC3CC3)nc(C3CC3)n2)CCS1` [Compound 18, 2-Cyclopropyl-4-cyclopropylamino-6-thiomorpholino-1,3,5-triazine], the ED30 in series [2] (setting [10]) and in series [2] (setting [11]) was 1 µmol/kg throughout. Moreover, the “Average number of shakes” value in series [3] (0.88 mg/kg i.p., counted over 30 minutes) worked out at 10.6 ± 3.0 shakes. The minimal effective concentration in series [5] turned out to be 0.1 µM. In addition, the “Minimum potentiating dose (MPD)” value was determined as 0.1 µmol/L in [6] and 1.0 µmol/L in [8]. Also, the Lethal dose in series [7] stood at 277 mg/kg. For the same compound, the ED50 in series [9] was 0.003 µmol/kg.
Turning to `N[C@@H](Cc1c[nH]c2ccc(O)cc12)C(=O)O` [5-HTP/carbidopa, 5-hydroxytryptophan, reference compound], the “Average number of shakes” value is 4.7 ± 1.5 shakes in series [3] (5-HTP 100.0 mg/kg i.p. after carbidopa 25 mg/kg i.p., measured 90 to 120 minutes after 5HTP) and 19.6 ± 3.0 shakes in series [3] (5-HTP 200.0 mg/kg i.p. after carbidopa 25 mg/kg i.p., measured 90 to 120 minutes after 5HTP).
Regarding `O=S1(=O)CCN(c2nc(NC3CC3)nc(C3CCC3)n2)CC1` [Compound 26, 2-Cyclobutyl-4-cyclopropylamino-6-thiomorpholino-1,3,5-triazine S,S-dioxide hydrochloride], the “Average number of shakes” value in [3] (1.15 mg/kg i.p., counted over 30 minutes) was determined as 11.8 ± 4.3 shakes. Further, the minimal effective concentration in series [5] came to 1 µM. Moreover, the Lethal dose in series [7] stood at 201.5 mg/kg. Moreover, in series [8], the “Minimum potentiating dose (MPD)” value amounted to 0.32 µmol/L. Besides, in series [9], the ED50 was determined as 0.03 µmol/kg.
With `CC1CC1c1nc(NC2CC2)nc(N2CCOCC2)n1.Cl` (stereo not shown) [Compound 25, 2-Cyclopropylamino-4-(2-methylcyclopropyl)-6-morpholino-1,3,5-triazine hydrochloride], in [3] (1.0 mg/kg i.p., counted over 30 minutes), the “Average number of shakes” value came out at 19.6 ± 5.0 shakes. Moreover, in [5], the minimal effective concentration worked out at 0.032 µM. The Lethal dose in series [7] is 99.7 mg/kg. The “Minimum potentiating dose (MPD)” value in series [8] was determined as 0.032 µmol/L.
As to `O=S1(=O)CCN(c2nc(NC3CC3)nc(C3CC3)n2)CC1` [Compound 20, 2-Cyclopropyl-4-cyclopropylamino-6-thiomorpholino-1,3,5-triazine S,S-dioxide], the values for the ED50 in series [1], in series [4] and in series [9] were 0.4 µmol/kg, 0.1 µmol/kg and 0.03 µmol/kg, respectively. The results for the ED30 in series [2] (setting [10]) and in series [2] (setting [11]) were 1 µmol/kg and 0.5 µmol/kg, respectively. In addition, the “Average number of shakes” value in series [3] (0.99 mg/kg i.p., counted over 30 minutes) stood at 13.6 ± 2.3 shakes. The minimal effective concentration in series [5] stood at 1 µM. The “Minimum potentiating dose (MPD)” value in [6] stood at 0.1 µmol/L; in series [8], 0.32 µmol/L. For the same compound, the Lethal dose in [7] worked out at 185 mg/kg.
In the case of `O=S1(=O)CCN(c2nc(NC3CC3)nc(C3CC3)n2)C1` [Compound 22, 2-Cyclopropyl-4-cyclopropylamino-6-(3-thiazolidinyl)-1,3,5-triazine S,S-dioxide], in [3] (0.95 mg/kg i.p., counted over 30 minutes), the “Average number of shakes” value came out at 8.1 ± 1.7 shakes. In addition, the minimal effective concentration in series [5] was determined as 0.1 µM. In addition, the Lethal dose in series [7] was 295 mg/kg. The “Minimum potentiating dose (MPD)” value in series [8] was 0.032 µmol/L.
With `CC1(c2nc(NC3CC3)nc(N3CCOCC3)n2)CC1` [Compound 24, 2-Cyclopropylamino-4-(1-methylcyclopropyl)-6-morpholino-1,3,5-triazine], the “Average number of shakes” value in series [3] (2.75 mg/kg i.p., counted over 30 minutes) is 6.1 ± 2.3 shakes. Also, the minimal effective concentration in [5] was 0.032 µM. In addition, in series [7], the Lethal dose is 825 mg/kg. For the same compound, in series [8], the “Minimum potentiating dose (MPD)” value was determined as 0.32 µmol/L. Moreover, the ED50 in series [9] turned out to be 0.04 µmol/kg.
`C1CCC(c2nc(NC3CC3)nc(N3CCOCC3)n2)C1` [Compound 8]: the ED50 in [1] came out at 0.3 µmol/kg; in series [4] it was 0.2 µmol/kg; in series [9] it was 0.1 µmol/kg. In addition, the ED30 in series [2] (setting [10]) and in series [2] (setting [11]) was 4 µmol/kg throughout. In addition, in series [5], the minimal effective concentration was determined as 1 µM. Also, the Lethal dose in series [7] came to 326 mg/kg. The “Minimum potentiating dose (MPD)” value in series [8] came to 10.0 µmol/L.
For `[O-][S+]1CCN(c2nc(NC3CC3)nc(C3CC3)n2)C1` (stereo not shown) [Compound 23, 2-Cyclopropyl-4-cyclopropylamino-6-(3-thiazolidinyl)-1,3,5-triazine S-oxide], the Lethal dose in [7] is 156 mg/kg.
